The values below come from ChEMBL document CHEMBL1212880, “Discovery of (2,4-dihydroxy-5-isopropylphenyl)-[5-(4-methylpiperazin-1-ylmethyl)-1,3-dihydroisoindol-2-yl]methanone (AT13387), a novel inhibitor of the molecular chaperone Hsp90 by fragment based drug design” (J Med Chem, 2010).

Series [1] concerns the target T1, hERG (KCNH2) (Homo sapiens, UniProt Q12809). The series is described as follows: in vitro. To be noted: HEK293 cells expressing hERG.
Description: Inhibition of human ERG expressed in HEK293 cells at 30 uM by patch clamp assay
Series [2] has as its target T1, hERG (KCNH2). The series is described as follows: in vitro. To be noted: HEK293 cells expressing hERG. This is another data set of the same source.
Description: Inhibition of human ERG expressed in HEK293 cells at 3 uM by patch clamp assay
The test system of series [3] is HCT-116. The series is described as follows: Cytotoxicity against human HCT116 cells at 100 uM by Alamar blue assay. The class given is functional.
Series [4] has as its system HCT-116. The series is described as follows: Cytotoxicity against human HCT116 cells at 30 uM by Alamar blue assay. The format is functional, cell-based.
A short description of series [5]: Dissociation constant, pKa of the compound. The format is physicochemical.
The nature of a further series: physchem. The following applies: buffer, pH 7.4.
Series [6] can be described thus: Protein binding in mouse plasma after 6 hrs by equilibrium dialysis method. The format is ADME, cell-free. To be noted: read-out: PPB (converted).
Series [7] can be described thus: Protein binding in human plasma after 6 hrs by equilibrium dialysis method. The format is ADME, cell-free. To be noted: read-out: PPB (converted).
Another series addresses CYP2C19 (Homo sapiens, UniProt P33261). The series is described as follows: Inhibition of CYP2C19 at 10 uM. The class given is ADME.
The next series has as its target CYP2C9 (Homo sapiens, UniProt P11712). The series is described as follows: Inhibition of CYP2C9 at 10 uM. The format is ADME.
A further series concerns the target CYP3A4 (Homo sapiens, UniProt P08684). The series is described as follows: Inhibition of CYP3A4 at 10 uM. The format is ADME.
A short description of series [8]: Solubility of the compound in acetate buffer at 15 mg at pH 5.5. The format is physicochemical.
Series [9] can be described thus: Solubility of the compound in lactate buffer at 15 mg at pH 4.2. The format is physicochemical.
Series [10] is described as follows: Solubility of the compound in phosphate buffer at 15 mg at pH 5.5. The class given is physicochemical.
A short description of series [11]: Solubility of the compound in phosphate buffer at 15 mg at pH 6.5. The class given is physicochemical.
Series [12] can be described thus: Thermal stability of the compound at 80 degC after 24 hrs. The format is physicochemical.
Series [13] in a line: Chemical stability of the compound after 48 hrs. The class given is physicochemical.
A short description of series [14]: Chemical stability of the compound after 144 hrs. The class given is physicochemical.
Series [15] can be described thus: Chemical stability of the compound after 24 hrs. The class given is physicochemical.

In brackets after ≈: the same amount, converted by molar mass. A value given as a limit tells only on which side of the number the result lay.

T1 sequence (Q12809 whole entry): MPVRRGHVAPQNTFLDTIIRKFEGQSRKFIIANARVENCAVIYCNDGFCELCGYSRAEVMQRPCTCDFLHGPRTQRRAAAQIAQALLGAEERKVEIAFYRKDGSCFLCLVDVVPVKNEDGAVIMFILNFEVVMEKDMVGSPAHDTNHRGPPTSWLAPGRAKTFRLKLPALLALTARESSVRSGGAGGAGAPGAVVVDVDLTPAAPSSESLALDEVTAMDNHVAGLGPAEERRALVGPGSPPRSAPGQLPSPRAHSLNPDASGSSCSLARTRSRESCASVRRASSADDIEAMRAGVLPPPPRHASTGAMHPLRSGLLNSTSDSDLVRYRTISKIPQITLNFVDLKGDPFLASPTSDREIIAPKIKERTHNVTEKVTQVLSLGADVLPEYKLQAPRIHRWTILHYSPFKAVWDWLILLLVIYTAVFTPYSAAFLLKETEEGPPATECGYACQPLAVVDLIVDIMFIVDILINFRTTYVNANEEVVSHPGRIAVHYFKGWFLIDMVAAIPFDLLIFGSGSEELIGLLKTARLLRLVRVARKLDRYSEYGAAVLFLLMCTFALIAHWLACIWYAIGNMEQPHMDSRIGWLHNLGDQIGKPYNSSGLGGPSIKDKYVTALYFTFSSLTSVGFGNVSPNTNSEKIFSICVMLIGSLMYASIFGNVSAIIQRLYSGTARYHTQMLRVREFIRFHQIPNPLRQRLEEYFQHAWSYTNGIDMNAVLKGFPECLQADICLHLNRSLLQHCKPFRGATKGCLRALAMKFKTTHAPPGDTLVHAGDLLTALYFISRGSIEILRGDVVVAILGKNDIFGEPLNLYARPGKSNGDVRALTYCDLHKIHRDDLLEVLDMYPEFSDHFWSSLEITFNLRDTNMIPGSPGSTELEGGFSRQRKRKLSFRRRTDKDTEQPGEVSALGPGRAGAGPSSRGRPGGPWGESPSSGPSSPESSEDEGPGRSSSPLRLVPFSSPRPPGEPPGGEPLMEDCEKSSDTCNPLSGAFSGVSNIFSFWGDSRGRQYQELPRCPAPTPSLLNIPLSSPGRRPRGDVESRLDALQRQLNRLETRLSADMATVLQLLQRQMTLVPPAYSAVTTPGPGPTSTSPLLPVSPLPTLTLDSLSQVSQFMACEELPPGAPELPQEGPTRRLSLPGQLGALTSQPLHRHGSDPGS
CYP3A4, sequence (P08684 whole entry): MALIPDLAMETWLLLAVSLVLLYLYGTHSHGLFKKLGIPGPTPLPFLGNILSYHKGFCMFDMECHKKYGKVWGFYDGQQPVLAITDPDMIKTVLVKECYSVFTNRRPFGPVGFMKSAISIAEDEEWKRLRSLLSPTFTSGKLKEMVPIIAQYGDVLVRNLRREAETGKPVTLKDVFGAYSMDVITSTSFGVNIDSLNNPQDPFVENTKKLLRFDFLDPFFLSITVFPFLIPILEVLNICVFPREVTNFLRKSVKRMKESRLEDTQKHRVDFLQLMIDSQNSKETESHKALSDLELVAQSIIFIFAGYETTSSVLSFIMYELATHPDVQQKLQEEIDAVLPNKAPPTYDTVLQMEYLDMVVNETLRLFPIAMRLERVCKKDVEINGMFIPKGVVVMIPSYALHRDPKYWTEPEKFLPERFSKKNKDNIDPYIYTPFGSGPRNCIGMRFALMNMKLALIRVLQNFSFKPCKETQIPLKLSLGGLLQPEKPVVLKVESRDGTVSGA
CYP2C19, sequence (P33261 whole entry): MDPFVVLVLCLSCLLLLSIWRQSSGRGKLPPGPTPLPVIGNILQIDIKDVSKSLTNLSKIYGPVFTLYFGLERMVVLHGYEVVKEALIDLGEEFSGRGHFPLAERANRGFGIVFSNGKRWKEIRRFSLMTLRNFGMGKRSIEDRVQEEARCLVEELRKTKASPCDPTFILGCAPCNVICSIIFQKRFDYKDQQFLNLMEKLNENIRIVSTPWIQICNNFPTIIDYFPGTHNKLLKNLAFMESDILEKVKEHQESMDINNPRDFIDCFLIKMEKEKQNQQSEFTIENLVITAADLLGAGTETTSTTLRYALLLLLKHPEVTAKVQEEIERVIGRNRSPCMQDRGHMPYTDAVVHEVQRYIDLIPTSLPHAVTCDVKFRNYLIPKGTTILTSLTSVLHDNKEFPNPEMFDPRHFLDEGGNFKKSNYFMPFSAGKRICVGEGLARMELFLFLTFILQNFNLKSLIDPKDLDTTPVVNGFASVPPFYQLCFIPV
CYP2C9, sequence (P11712 whole entry): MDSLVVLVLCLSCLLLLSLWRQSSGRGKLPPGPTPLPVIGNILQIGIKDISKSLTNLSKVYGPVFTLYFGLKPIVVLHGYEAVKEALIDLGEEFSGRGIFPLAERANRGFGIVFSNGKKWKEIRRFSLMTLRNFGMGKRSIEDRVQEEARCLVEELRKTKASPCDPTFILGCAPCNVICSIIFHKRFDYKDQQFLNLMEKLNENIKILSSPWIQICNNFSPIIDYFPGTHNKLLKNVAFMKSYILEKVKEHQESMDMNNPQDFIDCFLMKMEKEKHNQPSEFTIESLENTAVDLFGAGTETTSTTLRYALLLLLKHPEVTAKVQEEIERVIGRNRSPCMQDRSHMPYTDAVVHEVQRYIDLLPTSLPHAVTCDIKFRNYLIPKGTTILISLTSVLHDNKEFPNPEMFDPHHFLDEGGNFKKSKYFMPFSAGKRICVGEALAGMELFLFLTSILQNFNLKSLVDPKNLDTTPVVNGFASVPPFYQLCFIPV

On hERG (KCNH2) [1], `CC(C)c1cc(C(=O)N2Cc3ccc(OCCNCC(C)(C)C)cc3C2)c(O)cc1O` yielded an inhibition at 30 µM of 92%. In addition, the inhibition at 3 µM against hERG (KCNH2) [2] was 53%.
With `CC(C)c1c(O)cc(O)c(C(=O)N2Cc3ccccc3C2)c1F`, the results for the Activity with HCT-116 [3] and with HCT-116 [4] were 60% and “Not toxic”, respectively.
With `CC(C)c1cc(C(=O)N2Cc3ccc(CN4CCOCC4)cc3C2)c(O)cc1O`, the pKa in [5] came to 6.9. This molecule had a log distribution coefficient (logD) in the series “physchem” of 3.3. On hERG (KCNH2) [1], at 30 µM the inhibition was 48%. Moreover, the inhibition at 3 µM on hERG (KCNH2) [2] stood at 25%.
`CC(C)c1cc(C(=O)N2Cc3ccc(C(=O)N4CCN(C)CC4)cc3C2)c(O)cc1O` yielded a pKa in series [5] of 6.8. The molecule also showed a pH-dependent lipophilicity (logD) in the series “physchem” of 2.1. The values for the fraction unbound at 6 h in [6] and in [7] were 0.29 and 0.36, respectively. At hERG (KCNH2) [1], this molecule came in with an inhibition at 30 µM of 49%. Besides, testing at 3 µM on hERG (KCNH2) [2] gave an inhibition of 21%.
For the molecule `CC(C)c1cc(C(=O)N2Cc3ccc(NC4CCNCC4)cc3C2)c(O)cc1O`, in series [5], the pKa was found to be 10.2. This molecule showed a pH-dependent lipophilicity (logD) in “physchem” of 0.7. Moreover, the inhibition at 30 µM against hERG (KCNH2) [1] was 20%. The molecule further came in with an inhibition at 3 µM against hERG (KCNH2) [2] of 10%.
For `CC(C)c1cc(C(=O)N2Cc3ccc(CN(C)C)cc3C2)c(O)cc1O`, the pKa in series [5] came to 9.2. The logD in the series “physchem” was 2.1. The inhibition at 10 µM at CYP2C19 and on CYP2C9 was 50% throughout. Further, in series [7], the fraction unbound at 6 h is 0.36. The molecule further yielded an inhibition at 30 µM against hERG (KCNH2) [1] of 57%. The same molecule showed an inhibition at 3 µM on hERG (KCNH2) [2] of 5%.
`CC(C)c1cc(C(=O)N2Cc3ccc(N4CCOCC4)cc3C2)c(O)cc1O`: in [5], the pKa stood at 4.3.
Take `CC(C)c1cc(C(=O)N2Cc3cccc(N4CCN(C)CC4)c3C2)c(O)cc1O`: the inhibition at 10 µM at CYP3A4 was below 50%. At hERG (KCNH2) [1], this molecule displayed an inhibition at 30 µM of 87%. The molecule further came in with an inhibition at 3 µM against hERG (KCNH2) [2] of 41%.
Regarding `CC(C)c1cc(C(=O)N2Cc3cccc(OCCN(C)C)c3C2)c(O)cc1O`, the inhibition at 10 µM against CYP3A4 is below 50%. For the same molecule, 30 µM produced 93% inhibition at hERG (KCNH2) [1]. On hERG (KCNH2) [2], this molecule gave an inhibition at 3 µM of 43%.
Consider `CC(C)c1cc(C(=O)N2Cc3ccc(NC4CCN(C)CC4)cc3C2)c(O)cc1O`, for which, in series [5], the pKa was 9.05. Moreover, the logD in the series “physchem” was determined as 1.7. Also, the fraction unbound at 6 h in [7] was 0.36. The solubility in [8], in series [9], in [10] and in series [11] was below 3 mg/mL throughout. Besides, at 30 µM the inhibition against hERG (KCNH2) [1] was 72%. At hERG (KCNH2) [2], this molecule registered an inhibition at 3 µM of 25%.
`CC(C)c1cc(C(=O)N2Cc3ccc(C4(O)CCN(C)CC4)cc3C2)c(O)cc1O`: the pKa in [5] was determined as 9.4. Further, the logD in “physchem” came to 1.7. In series [7], the fraction unbound at 6 h is 0.36. Moreover, the solubility was above 30 mg/mL in series [8], above 30 mg/mL in series [9], above 30 mg/mL in series [10] and 15 mg/mL (≈ 36.5 mM) in series [11]. The Stability entry in [12] is listed as “Unstable”; in series [13] it was “Stable”; in [14] it was “Stable”; in series [15] it was “Stable”. This molecule also returned an inhibition at 30 µM against hERG (KCNH2) [1] of 34%. The molecule also had an inhibition at 3 µM against hERG (KCNH2) [2] of 15%.
